Experimental data reported in US20250197372A1 (priority 2020, published 2025).

What follows are compounds tested against T1, recombinant alpha-glucosidase I (human full-length glucosidase I, Glu 1) (Homo sapiens, UniProt Q13724) (assay: Alpha-glucosidase I assay (Amplex Red glucose detection, synthetic trisaccharide substrate)). Conditions: Glucosidase 1; read-out: Glu 1 IC50.
T1 construct: 6-His (C); made in house; host or cells: HEK-293T cells transduced with BacMam virus (virus raised in Sf9)
T1 sequence (Q13724 1-837): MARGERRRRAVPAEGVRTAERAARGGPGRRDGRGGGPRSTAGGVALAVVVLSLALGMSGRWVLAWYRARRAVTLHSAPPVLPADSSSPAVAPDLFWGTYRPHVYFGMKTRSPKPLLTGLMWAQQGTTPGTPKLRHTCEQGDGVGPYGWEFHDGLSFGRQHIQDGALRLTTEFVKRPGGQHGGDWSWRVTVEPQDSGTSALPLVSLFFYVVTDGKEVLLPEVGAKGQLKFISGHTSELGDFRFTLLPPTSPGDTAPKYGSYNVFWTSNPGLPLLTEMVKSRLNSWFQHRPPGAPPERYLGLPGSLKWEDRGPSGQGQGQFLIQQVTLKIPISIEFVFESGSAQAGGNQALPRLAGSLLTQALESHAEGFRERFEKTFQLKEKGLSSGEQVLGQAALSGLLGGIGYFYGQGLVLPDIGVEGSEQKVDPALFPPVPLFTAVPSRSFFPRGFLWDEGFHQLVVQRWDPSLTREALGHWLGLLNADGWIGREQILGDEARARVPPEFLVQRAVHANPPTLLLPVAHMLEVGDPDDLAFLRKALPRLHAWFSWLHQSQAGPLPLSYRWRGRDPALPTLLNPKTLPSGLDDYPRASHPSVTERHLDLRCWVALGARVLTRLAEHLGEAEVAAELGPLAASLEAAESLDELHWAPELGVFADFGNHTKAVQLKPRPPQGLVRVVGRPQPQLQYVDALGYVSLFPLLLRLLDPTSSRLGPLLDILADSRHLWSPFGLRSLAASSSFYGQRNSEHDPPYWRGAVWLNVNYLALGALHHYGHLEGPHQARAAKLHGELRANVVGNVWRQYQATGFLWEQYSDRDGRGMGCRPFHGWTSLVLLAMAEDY
Type: biochemical
Summary of the method: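 Compound dilution series incubated 60 min at 37° C with recombinant His-tagged human glucosidase I ([…]), after which trisaccharide substrate analog was added for 90 min at 37° C. Reaction quenched with 1.5M Tris pH 8; D-glucose detected by Amplex Red fluorescence, 560/590 nm. 4-PL curve fit of percent inhibition gave IC50.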

SMILES	IC50 [µM]
Cc1cc(NCc2cccc(CN3C[C@H](O)[C@@H](O)[C@H](O)[C@H]3CO)c2)cc(-c2cccnn2)c1 [Compound 1034, (2R,3R,4R,5S)-2-(hydroxymethyl)-1-{[3-({[3-methyl-5-(pyridazin-3-yl)phenyl]amino}methyl)phenyl]methyl}piperidine-3,4,5-triol]	0.02
COc1cc(NCCCCCCN2C[C@H](O)[C@@H](O)[C@H](O)[C@H]2CO)cc(-c2ncc[nH]2)c1 [Compound 1219, (2R,3R,4R,5S)-2-(hydroxymethyl)-1-(6-{[3-(1H-imidazol-2-yl)-5-methoxyphenyl]amino}hexyl)piperidine-3,4,5-triol]	0.093
COc1ccc(-c2ccc(CCCN3C[C@H](O)[C@@H](O)[C@H](O)[C@H]3CO)cc2)cc1 [Compound 1305, (2R,3R,4R,5S)-2-(hydroxymethyl)-1-(3-{4′-methoxy-[1,1′-biphenyl]-4-yl}propyl)piperidine-3,4,5-triol]	2.83
Cc1cc(NCc2cccc(CN3C[C@H](O)[C@@H](O)[C@H](O)[C@H]3CO)c2)cc(C2=COCCO2)c1 [Compound 1032, (2R,3R,4R,5S)-1-{[3-({[3-(5,6-dihydro-1,4-dioxin-2-yl)-5-methylphenyl]amino}methyl)phenyl]methyl}-2-(hydroxymethyl)piperidine-3,4,5-triol]	0.016
[N-]=[N+]=Nc1ccc(NCCCCCCN2C[C@H](O)[C@@H](O)[C@H](O)[C@H]2CO)c(C(=O)O)c1 [Compound 1297, 5-azido-2-({6-[(2R,3R,4R,5S)-3,4,5-trihydroxy-2-(hydroxymethyl)piperidin-1-yl]hexyl}amino)benzoic acid]	1.3
O=[N+]([O-])c1cc(Br)ccc1NCc1cccc(CN2C[C@H](O)[C@@H](O)[C@H](O)[C@H]2CO)c1 [Compound 1029, (2R,3R,4R,5S)-1-[(3-{[(4-bromo-2-nitrophenyl)-amino]methyl}phenyl)methyl]-2-(hydroxymethyl)piperidine-3,4,5-triol]	0.008
[N-]=[N+]=Nc1ccc(NCCc2cccc(CCN3C[C@H](O)[C@@H](O)[C@H](O)[C@H]3CO)c2)c([N+](=O)[O-])c1 [Compound 1240, (2R,3R,4R,5S)-1-[2-(3-{2-[(4-azido-2-nitrophenyl)amino]ethyl}phenyl)ethyl]-2-(hydroxymethyl)piperidine-3,4,5-triol]	0.283
N#Cc1ccc(F)cc1NCCCCCCN1C[C@H](O)[C@@H](O)[C@H](O)[C@H]1CO [Compound 1251, 4-fluoro-2-({6-[(2R,3R,4R,5S)-3,4,5-trihydroxy-2-(hydroxymethyl)piperidin-1-yl]hexyl}amino)benzonitrile]	0.226
COCCc1ccc(CCCN2C[C@H](O)[C@@H](O)[C@H](O)[C@H]2CO)cc1 [Compound 1308, (2R,3R,4R,5S)-2-(hydroxymethyl)-1-{3-[4-(2-methoxyethyl)phenyl]propyl}piperidine-3,4,5-triol]	> 100
OC[C@@H]1[C@@H](O)[C@H](O)[C@@H](O)CN1CCCCCCNc1ccc(-c2ncccn2)cc1Cl [Compound 1228, (2R,3R,4R,5S)-1-(6-{[2-chloro-4-(pyrimidin-2-yl)phenyl]amino}hexyl)-2-(hydroxymethyl)piperidine-3,4,5-triol]	0.019
[N-]=[N+]=Nc1ccc(NCCOC(=O)NCCN2C[C@H](O)[C@@H](O)[C@H](O)[C@H]2CO)c([N+](=O)[O-])c1 [Compound 1268, 2-[(4-azido-2-nitrophenyl)amino]ethyl N-{2-[(2R,3R,4R,5S)-3,4,5-trihydroxy-2-(hydroxymethyl)piperidin-1-yl]ethyl}carbamate]	1.99
[N-]=[N+]=Nc1ccc(NCCn2cc(CCN3C[C@H](O)[C@@H](O)[C@H](O)[C@H]3CO)nn2)c([N+](=O)[O-])c1 [Compound 1272, (2R,3R,4R,5S)-1-[2-(1-{2-[(4-azido-2-nitrophenyl)amino]ethyl}-1H-1,2,3-triazol-4-yl)ethyl]-2-(hydroxymethyl)piperidine-3,4,5-triol]	1.8
[N-]=[N+]=Nc1ccc(NCCN2CCN(CCN3C[C@H](O)[C@@H](O)[C@H](O)[C@H]3CO)CC2)c([N+](=O)[O-])c1 [Compound 1273, (2R,3R,4R,5S)-1-[2-(4-{2-[(4-azido-2-nitrophenyl)amino]ethyl}piperazin-1-yl)ethyl]-2-(hydroxymethyl)piperidine-3,4,5-triol]	13
NS(=O)(=O)c1cc(-c2ncccn2)ccc1NCCCCCCN1C[C@H](O)[C@@H](O)[C@H](O)[C@H]1CO [Compound 1265, 5-(pyrimidin-2-yl)-2-({6-[(2R,3R,4R,5S)-3,4,5-trihydroxy-2-(hydroxymethyl)piperidin-1-yl]hexyl}amino)benzene-1-sulfonamide]	0.282
[N-]=[N+]=Nc1ccc(NCCN(CCC(N)=O)CCN2C[C@H](O)[C@@H](O)[C@H](O)[C@H]2CO)c([N+](=O)[O-])c1 [Compound 1235]	8.11
Cc1cc(Br)cc(NCc2cccc(CN3C[C@H](O)[C@@H](O)[C@H](O)[C@H]3CO)c2)c1 [Compound 1021, (2R,3R,4R,5S)-1-[(3-{[(3-bromo-5-methylphenyl)amino]methyl}phenyl)methyl]-2-(hydroxymethyl)piperidine-3,4,5-triol]	0.006
Nc1ccc(NCCn2cc(CCN3C[C@H](O)[C@@H](O)[C@H](O)[C@H]3CO)nn2)c([N+](=O)[O-])c1Cl [Compound 1253, (2R,3R,4R,5S)-1-[2-(1-{2-[(4-amino-3-chloro-2-nitrophenyl)amino]ethyl}-1H-1,2,3-triazol-4-yl)ethyl]-2-(hydroxymethyl)piperidine-3,4,5-triol]	1.75
OC[C@@H]1[C@@H](O)[C@H](O)[C@@H](O)CN1Cc1ccc(CNc2ccc(Br)cc2)cc1 [Compound 1028, (2R,3R,4R,5S)-1-[(4-{[(4-bromophenyl)amino]methyl}phenyl)methyl]-2-(hydroxymethyl)piperidine-3,4,5-triol]	< 0.001
[N-]=[N+]=Nc1ccc(NCCS(=O)(=O)CCCN2C[C@H](O)[C@@H](O)[C@H](O)[C@H]2CO)c([N+](=O)[O-])c1 [Compound 1274, (2R,3R,4R,5S)-1-(3-{2-[(4-azido-2-nitrophenyl)amino]ethane-sulfonyl}propyl)-2-(hydroxymethyl)piperidine-3,4,5-triol]	1.55
N#Cc1cc(-c2ncccn2)ccc1NCCCCCCN1C[C@H](O)[C@@H](O)[C@H](O)[C@H]1CO [Compound 1256, 5-(pyrimidin-2-yl)-2-({6-[(2R,3R,4R,5S)-3,4,5-trihydroxy-2-(hydroxymethyl)piperidin-1-yl]hexyl}amino)benzonitrile]	0.09
O=[N+]([O-])c1cc(Br)ccc1NCc1ccc(CN2C[C@H](O)[C@@H](O)[C@H](O)[C@H]2CO)cc1 [Compound 1030, (2R,3R,4R,5S)-1-[(4-{[(4-bromo-2-nitrophenyl)amino]methyl}phenyl)methyl]-2-(hydroxymethyl)piperidine-3,4,5-triol]	< 0.001
[N-]=[N+]=Nc1ccc(NCCNS(=O)(=O)NCCN2C[C@H](O)[C@@H](O)[C@H](O)[C@H]2CO)c([N+](=O)[O-])c1 [Compound 1275, (2R,3R,4R,5S)-1-{2-[({2-[(4-azido-2-nitrophenyl)amino]ethyl}sulfamoyl)amino]ethyl}-2-(hydroxymethyl)piperidine-3,4,5-triol]	4.06
